This experiment concerns the target hMC2 receptor (Homo sapiens, UniProt Q01718). The experiment is described as follows: hMC2 membrane binding assay ([125I]ACTH (1-39) Tyr23, SPA). Set-up: scale not given here. Conditions: crude hMC2R membranes from CRE-bla-CHO-K1 cells expressing hMC2 receptor and hMRAP; [125I]ACTH (1-39) Tyr23 0.2 nM; 1.5 hours at room temperature; read-out: MC2R binding potency. The method, then: Crude membrane fractions are prepared from CRE-bla-CHO-K1 cells stably expressing hMC2 receptor and hMRAP accessory protein (Thermo Fisher). The cells are grown to 85-100% confluence on standard tissue culture dishes in GlutaMax DMEM growth media (Gibco) with following additives: 10% dialyzed FBS (Gemini), 0.1 mM NEAA (Gibco), 25 mM HEPES (Gibco), 5 μg/mL blasticidin (Goldbio), 100 μg/mL zeocin (Invitrogen), 600 μg/mL hygromycin (Goldbio). To prepare membranes, cells are scraped and collected in 1× Dulbecco's phosphate buffered saline (Corning) and then pelleted at 1000 RPM's. The cell pellet is reconstituted in membrane preparation buffer (20 mM HEPES, 6 mM MgCl2 and 1 mM EGTA, protease inhibitor tablets (Pierce) adjusted to pH 7.4), homogenized using a dounce homogenizer, and the resulting membrane fraction is pelleted by centrifugation at 12,000 RPM's. The membrane pellet is resuspended in membrane preparation buffer, snap freezed and stored at −80° C. for later use.
Binding Assay for hMC2 Antagonists Protocol:
The hMC2 membrane binding assay utilizes the following components: radiolabel [^125I]ACTH (1-39) Tyr23 (PerkinElmer), wheatgerm agglutinin coated PVT SPA beads (PerkinElmer), crude hMC2R membranes, and compounds. Briefly hMC2R membranes are incubated with SPA beads in binding assay buffer (50 mM HEPES, 5 mM MgCl2, 1 mM CaCl2, 0.2% BSA, protease inhibitor tablets (Pierce) adjusted to pH7.4) prior to assay initiation. A dose response of compound (the final concentration of compound are typically 0-10,000 nM), SPA membranes, and [^125I]ACTH (1-39) Tyr23 at a final concentration of 0.2 nM is plated in a 96-well assay plate and allowed to incubate 1.5 hours at room temperature. Assay plates are read using a Top Count NXT and Ki values for compounds are determined using a GraphPad Prism 6 non-linear regression analysis.

Where only a bound is given, the exact number is not on record here.

Sequence of hMC2 receptor (Q01718 whole entry): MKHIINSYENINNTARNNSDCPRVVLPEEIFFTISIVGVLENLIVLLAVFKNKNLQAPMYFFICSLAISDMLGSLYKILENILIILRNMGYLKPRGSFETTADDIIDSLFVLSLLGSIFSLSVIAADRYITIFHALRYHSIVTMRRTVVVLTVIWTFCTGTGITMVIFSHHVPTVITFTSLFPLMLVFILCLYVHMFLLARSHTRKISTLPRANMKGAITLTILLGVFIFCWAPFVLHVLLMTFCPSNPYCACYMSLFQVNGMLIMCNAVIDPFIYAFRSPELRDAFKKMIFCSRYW
Sequence of hMC2 receptor (Q8TCY5 whole entry partner): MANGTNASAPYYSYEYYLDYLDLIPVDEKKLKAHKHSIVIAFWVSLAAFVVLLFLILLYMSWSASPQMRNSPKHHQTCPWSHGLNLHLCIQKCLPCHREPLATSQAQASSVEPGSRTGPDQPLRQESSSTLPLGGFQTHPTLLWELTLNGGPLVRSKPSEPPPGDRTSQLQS

On to `CCOc1ncccc1-c1ccc(N2CCN(C(=O)c3ccc(Cl)cc3C(F)(F)F)C[C@H]2CC)c(C(=O)NC[C@@H]2CCN2C)n1` [Compound 1-232, 5-[(2R)-4-[4-chloro-2-(trifluoromethyl)benzoyl]-2-ethylpiperazin-1-yl]-2′-ethoxy-N-{[(2S)-1-methylazetidin-2-yl]methyl}-[2,3′-bipyridine]-6-carboxamide], for which the Ki was < 10 nM. Take `CCOc1ncccc1-c1ccc(N2CCN(C(=O)OC(C(C)(C)C)C(F)(F)F)C[C@H]2CC)c(C(=O)N[C@@H]2CCNC2)n1` (stereo partly drawn) [Compound 1-312, 1,1,1-trifluoro-3,3-dimethylbutan-2-yl (3R)-4-(2′-ethoxy-6-{[(3R)-pyrrolidin-3-yl]carbamoyl}-[2,3′-bipyridin]-5-yl)-3-ethylpiperazine-1-carboxylate]: the Ki was < 10 nM. Next, `CCOc1ccccc1-c1ccc(N2CCN(C(=O)c3ccc(OC)nc3C(F)(F)F)C[C@H]2CC)c(C(=O)NC2CN(C)C2)n1` [Compound 1-236, 6-(2-ethoxyphenyl)-3-[(2R)-2-ethyl-4-[6-methoxy-2-(trifluoromethyl)pyridine-3-carbonyl]piperazin-1-yl]-N-(1-methylazetidin-3-yl)pyridine-2-carboxamide]: < 10 nM. Next, `CCOc1ncccc1-c1ccc(N2CCN(C(=O)c3ccc(OC)nc3C(F)(F)F)C[C@H]2CC)c(C(=O)NC2CN(C)C2)n1` [Compound 1-230, 2′-ethoxy-5-[(2R)-2-ethyl-4-[6-methoxy-2-(trifluoromethyl)pyridine-3-carbonyl]piperazin-1-yl]-N-(1-methylazetidin-3-yl)-[2,3′-bipyridine]-6-carboxamide]: < 10 nM; `CCOc1ccccc1-c1ccc(N2CCN(C(=O)N3CCc4cccc(C(F)(F)F)c43)C[C@H]2CC)c(C(=O)N[C@H]2CCN(C)C2)n1` [Compound 1-402, 6-(2-ethoxyphenyl)-3-[(2R)-2-ethyl-4-[7-(trifluoromethyl)-2,3-dihydro-1H-indole-1-carbonyl]piperazin-1-yl]-N-[(3S)-1-methylpyrrolidin-3-yl]pyridine-2-carboxamide]: < 10 nM; `CCOc1ncccc1-c1ccc(N2CCN(C(=O)N3CCC[C@H]3C(F)(F)F)C[C@H]2CC)c(C(=O)NC[C@H]2CCN2C)n1` [Compound 1-386, 2′-ethoxy-5-[(2R)-2-ethyl-4-[(2S)-2-(trifluoromethyl)pyrrolidine-1-carbonyl]piperazin-1-yl]-N-{[(2R)-1-methylazetidin-2-yl]methyl}-[2,3′-bipyridine]-6-carboxamide]: 10 to 100 nM. Next, `CCOc1ncccc1-c1ccc(N2CCN(C(=O)O[C@H](C(C)(C)C)C(F)(F)F)C[C@H]2CC)c(C(=O)N[C@@H]2CCN(C)C2)n1` (single isomer, unassigned) [Compound 1-406]: < 10 nM; `CC[C@@H]1CN(C(=O)c2ccc(OC)nc2C(F)(F)F)CCN1c1ccc(-c2cccnc2OC)nc1C(=O)NC1CN(C)C1` [Compound 1-246, 5-[(2R)-2-ethyl-4-[6-methoxy-2-(trifluoromethyl)pyridine-3-carbonyl]piperazin-1-yl]-2′-methoxy-N-(1-methylazetidin-3-yl)-[2,3′-bipyridine]-6-carboxamide]: < 10 nM. For `CCOc1ncccc1-c1ccc(N2CCN(C(=O)N3CCc4cccc(F)c43)C[C@H]2CC)c(C(=O)N[C@@H]2CCNC2)n1` [Compound 1-350, 2′-ethoxy-5-[(2R)-2-ethyl-4-(7-fluoro-2,3-dihydro-1H-indole-1-carbonyl)piperazin-1-yl]-N-[(3R)-pyrrolidin-3-yl]-[2,3′-bipyridine]-6-carboxamide], the Ki was < 10 nM.

For the compound `CCOc1ncccc1-c1ccc(N2CCN(C(=O)c3ccc(OC)nc3C(F)(F)F)C[C@H]2CC)c(C(=O)N[C@H]2CNC[C@H]2F)n1` [Compound 1-291, 2′-ethoxy-5-[(2R)-2-ethyl-4-[6-methoxy-2-(trifluoromethyl)pyridine-3-carbonyl]piperazin-1-yl]-N-[(3S,4R)-4-fluoropyrrolidin-3-yl]-[2,3′-bipyridine]-6-carboxamide], the Ki was < 10 nM. Next, `CCOc1ccccc1-c1ccc(N2CCN(C(=O)c3ccc(C)cc3-c3ccc(CN)cc3)C[C@H]2CC)c(C(=O)NCCN)c1` [Compound 1-18, (R)-N-(2-aminoethyl)-4-(4-(4′-(aminomethyl)-5-methyl-[1,1′-biphenyl]-2-carbonyl)-2-ethylpiperazin-1-yl)-2′-ethoxy-[1,1′-biphenyl]-3-carboxamide]: < 10 nM.

Consider `CCOc1ncccc1-c1ccc(N2CCN(C(=O)c3ccc(Cl)cc3C(F)(F)F)C[C@H]2CC)c(C(=O)NC[C@H]2COCCN2)c1` [Compound 1-138, 2-[(2R)-4-[4-chloro-2-(trifluoromethyl)benzoyl]-2-ethylpiperazin-1-yl]-5-(2-ethoxypyridin-3-yl)-N-{[(3S)-morpholin-3-yl]methyl}benzamide], for which the Ki is < 10 nM. As to `CCOc1ncccc1-c1ccc(N2CCN(C(=O)C3(C(F)(F)F)CCC3)C[C@H]2CC)c(C(=O)N[C@@H]2CN3CCC2CC3)n1` [Compound 1-411, N-[(3S)-1-azabicyclo[2.2.2]octan-3-yl]-2′-ethoxy-5-[(2R)-2-ethyl-4-[1-(trifluoromethyl)cyclobutanecarbonyl]piperazin-1-yl]-[2,3′-bipyridine]-6-carboxamide], the Ki is < 10 nM. Next, `CCOc1ccc(C(=O)N2CCN(c3ccc(-c4cccnc4OCC)nc3CN)[C@H](CC)C2)c(C(F)(F)F)c1` [Compound 2-25, 1-{2′-ethoxy-5-[(2R)-4-[4-ethoxy-2-(trifluoromethyl)benzoyl]-2-ethylpiperazin-1-yl]-[2,3′-bipyridin]-6-yl}methanamine]: < 10 nM. As for `CCOc1ncccc1-c1ccc(N2CCN(C(=O)c3ccc(Cl)cc3N(C)C)C[C@H]2CC)c(C(=O)N[C@@H]2CCNC2)c1` [Compound 1-91, 2-[(2R)-4-[4-chloro-2-(dimethylamino)benzoyl]-2-ethylpiperazin-1-yl]-5-(2-ethoxypyridin-3-yl)-N-[(3R)-pyrrolidin-3-yl]benzamide], the figure is < 10 nM.

`CCOc1ncccc1-c1ccc(N2CCN(C(=O)C3(C(F)(F)F)CC4CCC3C4)C[C@H]2CC)c(C(=O)N[C@@H]2CCNC2)n1` (stereo partly drawn) [Compound 1-297, 2′-ethoxy-5-[(2R)-2-ethyl-4-[2-(trifluoromethyl)bicyclo[2.2.1]heptane-2-carbonyl]piperazin-1-yl]-N-[(3R)-pyrrolidin-3-yl]-[2,3′-bipyridine]-6-carboxamide]: the Ki was < 10 nM. As for `CCOc1ncccc1-c1ccc(N2CCN(C(=O)C3CCc4cccc(Cl)c43)C[C@H]2CC)c(C(=O)N[C@@H]2CCN(C)C2)n1` (stereo partly drawn) [Compound 1-382, 5-[(2R)-4-(7-chloro-2,3-dihydro-1H-indene-1-carbonyl)-2-ethylpiperazin-1-yl]-2′-ethoxy-N-[(3R)-1-methylpyrrolidin-3-yl]-[2,3′-bipyridine]-6-carboxamide], the figure is < 10 nM; as for `CCOc1ncccc1-c1ccc(N2CCN(C(=O)c3ccc(F)cc3C(F)F)C[C@H]2CC)c(C(=O)N[C@@H]2CCNC2)n1` [Compound 1-278, 5-[(2R)-4-[2-(difluoromethyl)-4-fluorobenzoyl]-2-ethylpiperazin-1-yl]-2′-ethoxy-N-[(3R)-pyrrolidin-3-yl]-[2,3′-bipyridine]-6-carboxamide], < 10 nM; as for `CCOc1ccc(C(=O)N2CCN(c3ccc(-c4cccnc4OCC)nc3C(=O)NC[C@@H]3CCN3)[C@H](CC)C2)c(C(F)(F)F)n1` [Compound 1-256, N-{[(2S)-azetidin-2-yl]methyl}-2′-ethoxy-5-[(2R)-4-[6-ethoxy-2-(trifluoromethyl)pyridine-3-carbonyl]-2-ethylpiperazin-1-yl]-[2,3′-bipyridine]-6-carboxamide], < 10 nM.

As to `CCOc1ncccc1-c1ccc(N2CCN(C(=O)C3(C(F)F)CCCC3)C[C@H]2CC)c(C(=O)N[C@@H]2CCN(C)C2)n1` [Compound 1-416, 5-[(2R)-4-[1-(difluoromethyl)cyclopentanecarbonyl]-2-ethylpiperazin-1-yl]-2′-ethoxy-N-[(3R)-1-methylpyrrolidin-3-yl]-[2,3′-bipyridine]-6-carboxamide], the Ki was < 10 nM. Next, `CCOc1ncccc1-c1ccc(N2CCN(C(=O)c3ccc(F)cc3C(F)(F)F)C[C@H]2CC)c(C(=O)NCCc2ncc[nH]2)n1` [Compound 1-224, 2′-ethoxy-5-[(2R)-2-ethyl-4-[4-fluoro-2-(trifluoromethyl)benzoyl]piperazin-1-yl]-N-[2-(1H-imidazol-2-yl)ethyl]-[2,3′-bipyridine]-6-carboxamide]: < 10 nM.

The values above are taken from patent US10981894B2, “Melanocortin subtype-2 receptor (MC2R) antagonists and uses thereof” (Crinetics Pharmaceuticals, Inc., priority 2018, dated 2021).
